Inhibition and IC50 data for four compounds are collected here from ChEMBL document CHEMBL3797126, “Oxaspirol B with p97 Inhibitory Activity and Other Oxaspirols from Lecythophora sp. FL1375 and FL1031, Endolichenic Fungi Inhabiting Parmotrema tinctorum and Cladonia evansii” (J Nat Prod, 2016).

Assay [1] concerns the target T1, Transitional endoplasmic reticulum ATPase (Homo sapiens, UniProt P55072). Put plainly: Inhibition of p97 (unknown origin) ATPase activity up to 200 uM after 10 mins by malachite green dye based visible spectrophotometry.
Target sequence in this assay (P55072 2-806 limits assumed): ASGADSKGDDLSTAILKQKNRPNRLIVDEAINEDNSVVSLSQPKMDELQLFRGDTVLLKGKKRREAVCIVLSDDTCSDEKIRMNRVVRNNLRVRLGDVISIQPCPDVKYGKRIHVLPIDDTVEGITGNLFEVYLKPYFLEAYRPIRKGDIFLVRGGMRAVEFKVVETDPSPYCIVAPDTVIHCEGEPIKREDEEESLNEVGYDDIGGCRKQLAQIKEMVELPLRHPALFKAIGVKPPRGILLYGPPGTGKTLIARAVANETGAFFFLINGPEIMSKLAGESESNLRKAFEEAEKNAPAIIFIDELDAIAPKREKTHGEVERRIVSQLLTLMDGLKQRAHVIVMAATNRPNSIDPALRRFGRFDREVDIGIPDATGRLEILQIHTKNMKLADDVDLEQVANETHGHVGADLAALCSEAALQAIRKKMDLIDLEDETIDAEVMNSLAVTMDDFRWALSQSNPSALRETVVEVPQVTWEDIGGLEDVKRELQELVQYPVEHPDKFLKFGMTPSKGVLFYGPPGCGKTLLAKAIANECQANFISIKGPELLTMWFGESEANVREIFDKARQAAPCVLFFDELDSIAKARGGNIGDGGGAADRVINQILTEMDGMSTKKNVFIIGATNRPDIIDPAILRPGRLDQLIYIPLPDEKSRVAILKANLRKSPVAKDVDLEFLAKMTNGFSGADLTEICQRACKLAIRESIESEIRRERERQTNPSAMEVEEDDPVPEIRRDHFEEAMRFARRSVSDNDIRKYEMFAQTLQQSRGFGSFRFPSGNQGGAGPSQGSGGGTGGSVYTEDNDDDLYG
Assay [2] addresses T1, Transitional endoplasmic reticulum ATPase. Put plainly: Reversible inhibition of p97 (unknown origin) ATPase activity after prolonged incubation followed by dialysis.
Target sequence in this assay (P55072 2-806 limits assumed): as above
The target of assay [3] is chaperonin GroEL (Escherichia coli) (UniProt P0A6F5). Put plainly: Inhibition of Escherichia coli chaperonin GroEL up to 200 uM.
chaperonin GroEL (Escherichia coli), sequence (P0A6F5 whole entry, looked up, the tested form may be a part): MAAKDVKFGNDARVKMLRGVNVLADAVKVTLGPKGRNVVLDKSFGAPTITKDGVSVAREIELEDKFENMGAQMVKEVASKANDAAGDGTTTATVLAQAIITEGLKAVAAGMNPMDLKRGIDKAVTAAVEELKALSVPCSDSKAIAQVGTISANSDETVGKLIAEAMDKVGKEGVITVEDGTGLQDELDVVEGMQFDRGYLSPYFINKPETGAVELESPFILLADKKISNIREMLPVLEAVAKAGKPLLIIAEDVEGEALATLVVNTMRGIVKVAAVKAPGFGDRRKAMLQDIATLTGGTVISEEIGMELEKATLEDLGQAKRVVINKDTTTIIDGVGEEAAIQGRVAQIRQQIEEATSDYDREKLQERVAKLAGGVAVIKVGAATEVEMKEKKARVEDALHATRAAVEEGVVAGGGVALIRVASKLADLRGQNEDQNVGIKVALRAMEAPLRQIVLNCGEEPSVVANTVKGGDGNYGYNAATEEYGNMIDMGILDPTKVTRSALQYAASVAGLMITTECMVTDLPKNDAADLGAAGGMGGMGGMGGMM
In assay [4] the target is T1, Transitional endoplasmic reticulum ATPase. Kind of assay: Inhibition of p97 (unknown origin) ATPase in HEK293 cells expressing UbG76VGFP fusion protein assessed as level of UbG76VGFP rescued by measuring GFP fluorescence loss by flow cytometry. The assay is classed as cell-based. For orientation: A flow cytometer gives signals particle by particle.
Target sequence in this assay (P55072 2-806 limits assumed): as the sequence (P55072 2-806 limits assumed) above
For assay [5], the target named is Vesicle-fusing ATPase (Homo sapiens) (UniProt P46459). Put plainly: Inhibition of type 2 AAA+ N-ethylmaleimide sensitive factor (unknown origin) up to 200 uM.
Vesicle-fusing ATPase (Homo sapiens), sequence (P46459 whole entry): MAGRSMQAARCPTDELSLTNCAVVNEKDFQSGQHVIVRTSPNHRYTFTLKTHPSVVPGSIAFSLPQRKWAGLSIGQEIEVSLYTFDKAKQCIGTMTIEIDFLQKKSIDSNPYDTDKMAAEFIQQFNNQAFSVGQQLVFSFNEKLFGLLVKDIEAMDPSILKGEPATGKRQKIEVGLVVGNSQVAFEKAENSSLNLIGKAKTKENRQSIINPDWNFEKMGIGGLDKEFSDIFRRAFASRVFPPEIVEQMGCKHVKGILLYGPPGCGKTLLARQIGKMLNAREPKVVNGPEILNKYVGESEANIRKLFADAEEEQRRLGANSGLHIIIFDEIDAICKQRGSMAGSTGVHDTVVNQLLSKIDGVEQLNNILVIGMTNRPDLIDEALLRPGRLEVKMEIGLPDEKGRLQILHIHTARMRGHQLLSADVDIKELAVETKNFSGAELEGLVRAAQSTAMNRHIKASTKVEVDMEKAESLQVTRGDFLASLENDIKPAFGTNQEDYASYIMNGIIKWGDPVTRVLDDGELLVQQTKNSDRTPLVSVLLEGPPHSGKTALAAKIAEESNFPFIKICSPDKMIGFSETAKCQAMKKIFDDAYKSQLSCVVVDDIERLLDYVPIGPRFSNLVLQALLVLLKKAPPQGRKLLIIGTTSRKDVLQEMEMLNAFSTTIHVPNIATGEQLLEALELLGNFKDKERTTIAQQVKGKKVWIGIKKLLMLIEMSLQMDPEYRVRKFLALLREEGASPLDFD
The target of assay [6] is T1, Transitional endoplasmic reticulum ATPase. Kind of assay: Inhibition of p97 (unknown origin) ATPase activity after 10 mins by malachite green dye based visible spectrophotometry.
Target sequence in this assay (P55072 whole entry): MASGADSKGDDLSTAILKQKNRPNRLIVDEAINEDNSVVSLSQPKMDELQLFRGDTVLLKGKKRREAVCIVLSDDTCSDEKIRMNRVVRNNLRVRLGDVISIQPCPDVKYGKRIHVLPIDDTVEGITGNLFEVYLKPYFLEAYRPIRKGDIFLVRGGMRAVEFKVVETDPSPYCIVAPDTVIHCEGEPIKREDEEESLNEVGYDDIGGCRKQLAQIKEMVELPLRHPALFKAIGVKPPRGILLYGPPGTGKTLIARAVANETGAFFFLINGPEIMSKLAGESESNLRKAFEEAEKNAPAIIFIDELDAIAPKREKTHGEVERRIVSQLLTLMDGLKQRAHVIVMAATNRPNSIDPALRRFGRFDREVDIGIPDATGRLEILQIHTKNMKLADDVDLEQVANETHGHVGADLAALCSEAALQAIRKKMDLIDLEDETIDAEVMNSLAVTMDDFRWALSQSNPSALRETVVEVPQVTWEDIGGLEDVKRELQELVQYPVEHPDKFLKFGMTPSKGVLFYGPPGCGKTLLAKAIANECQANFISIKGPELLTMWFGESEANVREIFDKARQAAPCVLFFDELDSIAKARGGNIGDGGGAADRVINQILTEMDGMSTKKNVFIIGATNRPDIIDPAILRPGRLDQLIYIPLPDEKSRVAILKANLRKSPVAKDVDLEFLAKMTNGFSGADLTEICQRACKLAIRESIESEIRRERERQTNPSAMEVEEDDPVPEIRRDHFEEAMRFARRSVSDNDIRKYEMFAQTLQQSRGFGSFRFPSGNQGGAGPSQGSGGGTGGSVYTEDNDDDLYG
The target in assay [7] is ATP-dependent clpX-like chaperone, mitochondrial (Homo sapiens) (UniProt O76031). Put plainly: Inhibition of type 1 AAA+ chaperone ClpX (unknown origin) up to 200 uM.
ATP-dependent clpX-like chaperone, mitochondrial (Homo sapiens), sequence (O76031 whole entry): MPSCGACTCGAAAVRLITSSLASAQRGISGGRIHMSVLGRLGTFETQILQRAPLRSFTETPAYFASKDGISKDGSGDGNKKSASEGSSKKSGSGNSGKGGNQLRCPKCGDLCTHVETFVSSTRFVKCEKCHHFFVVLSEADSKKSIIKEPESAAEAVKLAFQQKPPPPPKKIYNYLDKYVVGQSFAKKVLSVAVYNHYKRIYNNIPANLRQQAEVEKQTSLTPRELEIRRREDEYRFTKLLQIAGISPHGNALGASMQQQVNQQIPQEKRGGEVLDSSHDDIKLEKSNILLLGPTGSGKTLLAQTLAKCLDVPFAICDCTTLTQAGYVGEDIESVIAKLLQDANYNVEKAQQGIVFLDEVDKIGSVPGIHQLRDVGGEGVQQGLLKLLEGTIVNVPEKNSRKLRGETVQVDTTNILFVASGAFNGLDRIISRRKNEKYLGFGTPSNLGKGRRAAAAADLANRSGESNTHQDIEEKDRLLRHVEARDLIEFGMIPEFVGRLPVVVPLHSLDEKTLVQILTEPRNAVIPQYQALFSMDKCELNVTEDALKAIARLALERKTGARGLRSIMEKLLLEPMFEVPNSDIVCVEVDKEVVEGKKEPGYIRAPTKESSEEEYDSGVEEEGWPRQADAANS
Assay [8] addresses T1, Transitional endoplasmic reticulum ATPase. The note with it: 200 uM.
Target sequence in this assay (P55072 2-806 limits assumed): as the sequence (P55072 2-806 limits assumed) above
Description: Inhibition of p97 cysteine-less mutant (unknown origin) at 200 uM after 10 mins by malachite green dye based visible spectrophotometry
Assay [9] has as its target Transitional endoplasmic reticulum ATPase (Homo sapiens, UniProt P55072, C209A). Kind of assay: Inhibition of p97-C209A mutant (unknown origin) after 10 mins by malachite green dye based visible spectrophotometry.
The target in assay [10] is Transitional endoplasmic reticulum ATPase (Homo sapiens, UniProt P55072, C522A). Put plainly: Inhibition of p97-C522A mutant (unknown origin) after 10 mins by malachite green dye based visible spectrophotometry.
Transitional endoplasmic reticulum ATPase (Homo sapiens, UniProt P55072, C522A), sequence (P55072 2-806 C522A limits assumed): as the sequence (P55072 2-806 limits assumed) above, with C521A counted along it
The target of assay [11] is T1, Transitional endoplasmic reticulum ATPase. Put plainly: Inhibition of p97 (unknown origin) ATPase in HEK293 cells expressing T cell receptor alpha-GFP assessed as level of T cell receptor alpha-GFP rescued by flow cytometry. The format is cell-based.
Target sequence in this assay (P55072 2-806 limits assumed): as the sequence (P55072 2-806 limits assumed) above
Assay [12] shares this target. The following applies: 100 uM.
Target sequence in this assay (P55072 2-806 limits assumed): as above
Description: Reversible inhibition of p97 (unknown origin) ATPase activity at 100 uM after prolonged incubation of 6 hrs followed by dialysis for 2 hrs by malachite green dye based visible spectrophotometry

Activity calls are given as the source filed them. No cut-off for these calls is given here.

Transitional endoplasmic reticulum ATPase (Homo sapiens, UniProt P55072, C209A), sequence (P55072 2-806 C209A limits assumed): as the sequence (P55072 2-806 limits assumed) above, with C208A counted along it

As for `C=C1OC(=O)[C@@]2(C1=O)[C@H](/C=C/C=C/CCC)C=C[C@@H](OC(C)=O)[C@@H]2OC(C)=O`, the inhibition entry in assay [1] was “inactive”.

`C=C1OC(=O)[C@]2(C1=O)[C@H](/C=C/C=C/CCC)C=C[C@@H](OC(C)=O)[C@@H]2OC(C)=O`: the inhibition entry in assay [1] is “inactive”.

Take `C[C@H]1CCC/C=C/C(=O)c2c(O)cc(O)cc2CC(=O)O1`: the inhibition entry in assay [2] was “inactive”.

What is called IC50 is the midpoint of a concentration-inhibition curve. High values mean weaker potency in that assay, low ones greater potency in that assay. On to `C=C1OC(=O)C2(C1=O)[C@H](/C=C/C=C/CCC)C=C[C@@H](O)[C@@H]2O` (mixture of isomers), for which the inhibition entry in [3], in [5], in assay [7] and in assay [8] was “inactive” throughout. Moreover, the inhibition entry in [4] and in [11] was “Dose-dependent effect” each time. Further, the concentration for half-maximal inhibition (IC50) in [6] stood at 31.2 µM; in assay [9], 18 µM; in assay [10], 26.3 µM. The inhibition entry in assay [12] was “Active”.
